Test results from patent US12492188B2, “1H-benzo[D]imidazole derivatives as TLR9 inhibitors for the treatment of fibrosis” (BRISTOL-MYERS SQUIBB COMPANY, priority 2020, dated 2025).
Read-outs that look alike come from different tables or passages of the source.

Experiments:
Assay type in all cases: cell-based
human TLR9 = target: T1, human TLR9 (Homo sapiens, UniProt Q9NR96); assay: TLR9 inhibition reporter assay (HEK-Blue cells, secreted embryonic alkaline phosphatase reporter); settings: HEK-Blue cells overexpressing human TLR9, stimulated with ODN2006 5 nM
T1 construct: host or cells: HEK-Blue cells (HEK293-derived reporter line)
T1 sequence (Q9NR96 26-1032): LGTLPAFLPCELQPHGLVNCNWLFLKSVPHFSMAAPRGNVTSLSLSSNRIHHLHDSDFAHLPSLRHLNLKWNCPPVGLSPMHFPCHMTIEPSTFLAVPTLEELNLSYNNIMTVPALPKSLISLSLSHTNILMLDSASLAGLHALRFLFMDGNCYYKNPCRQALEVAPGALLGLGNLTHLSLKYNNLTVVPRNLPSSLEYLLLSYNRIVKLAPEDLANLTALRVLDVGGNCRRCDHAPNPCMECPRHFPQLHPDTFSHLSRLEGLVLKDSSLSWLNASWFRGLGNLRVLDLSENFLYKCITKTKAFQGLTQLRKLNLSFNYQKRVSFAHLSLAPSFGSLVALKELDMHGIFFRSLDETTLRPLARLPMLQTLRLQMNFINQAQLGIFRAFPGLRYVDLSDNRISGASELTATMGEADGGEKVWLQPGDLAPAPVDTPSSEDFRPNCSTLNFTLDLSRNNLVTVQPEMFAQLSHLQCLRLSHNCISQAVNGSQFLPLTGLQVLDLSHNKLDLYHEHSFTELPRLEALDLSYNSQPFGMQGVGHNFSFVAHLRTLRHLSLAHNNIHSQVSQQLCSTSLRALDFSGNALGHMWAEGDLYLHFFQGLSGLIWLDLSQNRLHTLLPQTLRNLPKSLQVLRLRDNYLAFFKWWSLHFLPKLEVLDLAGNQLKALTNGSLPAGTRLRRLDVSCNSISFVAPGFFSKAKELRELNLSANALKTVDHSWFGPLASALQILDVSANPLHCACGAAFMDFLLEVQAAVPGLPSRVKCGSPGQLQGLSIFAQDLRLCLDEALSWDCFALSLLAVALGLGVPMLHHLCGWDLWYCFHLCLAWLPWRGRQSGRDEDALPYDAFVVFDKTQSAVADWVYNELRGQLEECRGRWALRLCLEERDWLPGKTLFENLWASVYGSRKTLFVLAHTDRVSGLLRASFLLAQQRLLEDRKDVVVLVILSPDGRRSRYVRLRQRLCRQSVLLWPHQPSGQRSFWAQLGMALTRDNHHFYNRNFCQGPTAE
How it was run: (§1)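 Agonist-driven SEAP output was measured in HEK-Blue reporter cells carrying human TLR7 (gardiquimod 7.5 μM), TLR8 (R848 15.9 μM) or TLR9 (ODN2006 5 nM). Compounds at 0.05 nM–50 μM final were added 30 min before stimulation at room temperature. After 22 h at 37 °C, percent inhibition was taken against agonist/DMSO wells and a reference inhibitor.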

human TLR7 = target: T2, human TLR7 (Homo sapiens, UniProt Q9NYK1); assay: TLR7 inhibition reporter assay (HEK-Blue cells, secreted embryonic alkaline phosphatase reporter); settings: HEK-Blue cells overexpressing human TLR7, stimulated with gardiquimod 7.5 μM; read-out: TLR 7 IC50
T2 construct: host or cells: HEK-Blue cells (HEK293-derived reporter line)
T2 sequence (Q9NYK1 27-1049): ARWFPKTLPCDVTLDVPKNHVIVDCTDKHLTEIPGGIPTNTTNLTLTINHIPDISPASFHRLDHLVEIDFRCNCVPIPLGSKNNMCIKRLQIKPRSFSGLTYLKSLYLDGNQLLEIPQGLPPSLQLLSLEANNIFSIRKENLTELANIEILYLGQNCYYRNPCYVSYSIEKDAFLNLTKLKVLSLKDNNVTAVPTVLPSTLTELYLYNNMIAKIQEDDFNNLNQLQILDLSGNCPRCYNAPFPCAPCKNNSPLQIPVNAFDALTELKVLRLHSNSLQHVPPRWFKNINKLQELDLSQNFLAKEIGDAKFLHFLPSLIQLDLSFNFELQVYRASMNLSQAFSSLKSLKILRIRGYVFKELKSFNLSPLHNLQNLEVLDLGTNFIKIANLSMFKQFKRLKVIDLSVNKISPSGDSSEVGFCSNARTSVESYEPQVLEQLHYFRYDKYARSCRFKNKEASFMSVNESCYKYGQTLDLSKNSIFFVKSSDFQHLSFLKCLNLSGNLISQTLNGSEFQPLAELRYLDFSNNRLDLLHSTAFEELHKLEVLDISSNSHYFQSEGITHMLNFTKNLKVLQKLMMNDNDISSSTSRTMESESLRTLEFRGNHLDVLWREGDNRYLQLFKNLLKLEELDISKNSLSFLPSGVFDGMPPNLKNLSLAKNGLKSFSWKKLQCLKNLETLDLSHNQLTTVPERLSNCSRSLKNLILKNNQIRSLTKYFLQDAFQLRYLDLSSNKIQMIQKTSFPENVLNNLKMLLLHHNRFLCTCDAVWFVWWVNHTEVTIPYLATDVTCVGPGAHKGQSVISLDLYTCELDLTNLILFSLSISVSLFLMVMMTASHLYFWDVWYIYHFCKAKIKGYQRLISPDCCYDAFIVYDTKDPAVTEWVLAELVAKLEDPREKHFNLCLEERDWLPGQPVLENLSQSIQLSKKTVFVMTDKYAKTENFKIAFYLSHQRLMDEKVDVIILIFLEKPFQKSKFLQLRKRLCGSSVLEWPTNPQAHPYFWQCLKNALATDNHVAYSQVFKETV
How it was run: as §1

human TLR8 = target: T3, human TLR8 (Homo sapiens, UniProt Q9NR97); assay: TLR8 inhibition reporter assay (HEK-Blue cells, secreted embryonic alkaline phosphatase reporter); settings: HEK-Blue cells overexpressing human TLR8, stimulated with R848 15.9 μM; read-out: TLR 8 IC50
T3 construct: host or cells: HEK-Blue cells (HEK293-derived reporter line)
T3 sequence (Q9NR97 27-1041): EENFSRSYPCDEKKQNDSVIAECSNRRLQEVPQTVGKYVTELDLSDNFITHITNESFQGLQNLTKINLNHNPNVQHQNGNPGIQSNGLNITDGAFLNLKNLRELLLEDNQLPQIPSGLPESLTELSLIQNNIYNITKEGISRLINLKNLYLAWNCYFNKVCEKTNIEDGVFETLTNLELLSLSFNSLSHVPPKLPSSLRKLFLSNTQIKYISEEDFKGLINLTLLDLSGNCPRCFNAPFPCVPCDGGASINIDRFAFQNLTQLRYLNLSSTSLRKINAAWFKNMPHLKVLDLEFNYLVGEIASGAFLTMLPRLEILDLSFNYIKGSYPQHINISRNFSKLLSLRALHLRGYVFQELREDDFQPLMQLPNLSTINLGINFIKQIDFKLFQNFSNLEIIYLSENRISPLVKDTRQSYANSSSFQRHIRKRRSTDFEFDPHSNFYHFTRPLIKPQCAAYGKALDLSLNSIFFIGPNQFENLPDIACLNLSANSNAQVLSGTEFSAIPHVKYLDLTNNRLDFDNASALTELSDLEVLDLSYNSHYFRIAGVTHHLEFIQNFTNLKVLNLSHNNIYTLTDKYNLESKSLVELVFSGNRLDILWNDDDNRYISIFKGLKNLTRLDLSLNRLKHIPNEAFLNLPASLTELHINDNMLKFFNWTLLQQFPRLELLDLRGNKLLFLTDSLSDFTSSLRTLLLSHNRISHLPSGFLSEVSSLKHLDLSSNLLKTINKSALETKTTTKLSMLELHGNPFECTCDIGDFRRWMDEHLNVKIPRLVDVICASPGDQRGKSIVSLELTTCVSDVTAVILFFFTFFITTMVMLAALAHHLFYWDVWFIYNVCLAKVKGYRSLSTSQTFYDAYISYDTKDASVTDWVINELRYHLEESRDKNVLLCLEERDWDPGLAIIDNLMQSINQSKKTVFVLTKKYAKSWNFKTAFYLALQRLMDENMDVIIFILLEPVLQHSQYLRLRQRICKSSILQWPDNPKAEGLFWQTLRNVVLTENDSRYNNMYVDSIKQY
How it was run: as §1

[1] = 22 hour incubation, reporter readout

Compound	IC50 (human TLR9; [1])	IC50 (human TLR9; read-out: TLR 9 IC50)	IC50 (human TLR7)	IC50 (human TLR8)
COc1ccc(-c2nc3cc(C4CCN(C5CCN(CC(C)C)CC5)CC4)ccc3n2CC(F)F)cc1OC [Example 38, 1-(2,2-difluoroethyl)-2-(3,4-dimethoxyphenyl)-5-(1′-isobutyl-[1,4′-bipiperidin]-4-yl)-1H-benzo[d]imidazole]	210 nM	208 nM	3400 nM	> 50000 nM
COc1ccc(-c2nc3cc(C4CCN(C5CCN(C6CC6)CC5)CC4)ccc3n2CC(F)F)cc1OC [Example 39, 5-(1′-cyclopropyl-[1,4′-bipiperidin]-4-yl)-1-(2,2-difluoroethyl)-2-(3,4-dimethoxyphenyl)-1H-benzo[d]imidazole]	590 nM	590 nM	6400 nM	30000 nM
CCn1c(-c2ccc(OC)c(OC)c2)nc2ccc(C3CCN(C4CCN(CC(C)C)CC4)CC3)cc21 [Example 40, 2-(3,4-dimethoxyphenyl)-1-ethyl-6-(1′-isobutyl-[1,4′-bipiperidin]-4-yl)-1H-benzo[d]imidazole]	150 nM	149 nM	2300 nM	46000 nM
CCn1c(-c2ccc(OC)c(OC)c2)nc2cc(C3CCN(C4CCN(CC(C)C)CC4)CC3)ccc21 [Example 41, 2-(3,4-dimethoxyphenyl)-1-ethyl-5-(1′-isobutyl-[1,4′-bipiperidin]-4-yl)-1H-benzo[d]imidazole]	400 nM	404 nM	3700 nM	1600 nM
COc1ccc(-c2nc3cc(C4CCN(C5CCN(CC(C)C)CC5)CC4)c(C(F)(F)F)cc3[nH]2)cc1OC [Example 42, 2-(3,4-dimethoxyphenyl)-5-(1′-isobutyl-[1,4′-bipiperidin]-4-yl)-6-(trifluoromethyl)-1H-benzo[d]imidazole]	260 nM	255 nM	32000 nM	> 50000 nM
COc1ccc(-c2nc3c(C)cc(C4CCN(C5CCN(CC(C)C)CC5)CC4)cc3[nH]2)cc1OC [Example 43, 2-(3,4-dimethoxyphenyl)-6-(1′-isobutyl-[1,4′-bipiperidin]-4-yl)-4-methyl-1H-benzo[d]imidazole tris(2,2,2-trifluoroacetate)]	9.8 nM	9.8 nM	650 nM	31000 nM
COc1ccc(-c2nc3c(C)cc(C4CCN(C5CCN(C6CC6)CC5)CC4)cc3[nH]2)cc1OC [Example 44, 6-(1′-cyclopropyl-[1,4′-bipiperidin]-4-yl)-2-(3,4-dimethoxyphenyl)-4-methyl-1H-benzo[d]imidazole]	52 nM	52 nM	9100 nM	5500 nM
COc1ccc(-c2nc3c(C)cc(C4CCN(C5CCN(C(C)C)CC5)CC4)cc3n2C)cc1OC [Example 45, 2-(3,4-dimethoxyphenyl)-6-(1′-isopropyl-[1,4′-bipiperidin]-4-yl)-1,4-dimethyl-1H-benzo[d]imidazole]	20 nM	20 nM	11000 nM	> 50000 nM
COc1ccc(-c2nc3c(C)cc(C4CCN(C5CCN(C6CC6)CC5)CC4)cc3n2C)cc1OC [Example 46, 6-(1′-cyclopropyl-[1,4′-bipiperidin]-4-yl)-2-(3,4-dimethoxyphenyl)-1,4-dimethyl-1H-benzo[d]imidazole tris(2,2,2-trifluoroacetate)]	170 nM	610 nM	18000 nM	> 50000 nM
COc1ccc(-c2nc3c(C)cc(C4CCN(C5CC6(C5)CN(CC(C)C)C6)CC4)cc3n2C)cc1OC [Example 47, 2-(3,4-dimethoxyphenyl)-6-(1-(2-isobutyl-2-azaspiro[3.3]heptan-6-yl)piperidin-4-yl)-1,4-dimethyl-1H-benzo[d]imidazole tris(2,2,2-trifluoroacetate)]	13 nM	13 nM	7200 nM	> 50000 nM
COc1ccc(-c2nc3c(C)cc(C4CCN(C5CC6(C5)CN(CC5CC5)C6)CC4)cc3n2C)cc1OC [Example 48, 6-(1-(2-(cyclopropylmethyl)-2-azaspiro[3.3]heptan-6-yl)piperidin-4-yl)-2-(3,4-dimethoxyphenyl)-1,4-dimethyl-1H-benzo[d]imidazole]	19 nM	19 nM	> 50000 nM	> 50000 nM
COc1ccc(-c2nc3c(C)cc(C4CCN(C5CC6(C5)CN(C5CCC5)C6)CC4)cc3n2C)cc1OC [Example 49, 6-(1-(2-cyclobutyl-2-azaspiro[3.3]heptan-6-yl)piperidin-4-yl)-2-(3,4-dimethoxyphenyl)-1,4-dimethyl-1H-benzo[d]imidazole]	65 nM	65 nM	5800 nM	> 50000 nM
